Laboratory results reported in patent US20260137703A1, “2-AMINO-PYRIDO[2,3-D]PYRIMIDIN-7(8H)-ONE AND 7-AMINO-1-PYRIMIDO[4,5-D]PYRIMIDIN-2(1 H)-ONE DERIVATIVES AS EGFR INHIBITORS FOR THE TREATMENT OF CANCER” (Cancer Research Technology Limited, priority 2022, published 2026).

How the values were obtained:
[1] = target: T1, Phospho-EGFR (Tyr1068) in H1975 cells (Homo sapiens, UniProt P00533, L858R/T790M); test: HTRF pEGFR/total EGFR in H1975 cells; assay type: cell-based; details: ratio pEGFR/total EGFR, compound 3 hours
T1 construct: host or cells: H1975
Outline: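 Readout is the phospho-EGFR (Tyr1068) to total EGFR HTRF ratio, expressed relative to 0 μM control. Adhered H1975 cells were exposed to compound for 3 hours at 0.1% DMSO, duplicate wells, then lysed for 30 min at room temperature before two-wavelength fluorescence reading.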

[2] = target: T2, Phospho-EGFR (Tyr1068) in A431 cells (Homo sapiens, UniProt P00533); test: HTRF pEGFR/total EGFR in A431 cells with EGF stimulation; assay type: cell-based; details: ratio pEGFR/total EGFR, compound 2.5 hours then 100 ng/ml EGF 30 mins
T2 construct: endogenous in cells; host or cells: A431
Outline: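 Values are pEGFR(Tyr1068)/total EGFR HTRF ratios (665/620 nm) given as percent of the 0 μM control. Adhered A431 cells (20,000 per well, 24 h) had 2.5 h compound pretreatment in 0.1% DMSO, then 30 min of 100 ng/ml EGF before lysis.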

[3] = target: T3, Phospho-EGFR (Tyr1068) in H1975 C797S cells (CRISPR-edited EGFR C797S) (Homo sapiens, UniProt P00533, C797S/L858R/T790M); test: HTRF pEGFR/total EGFR in H1975 C797S cells; assay type: cell-based; details: ratio pEGFR/total EGFR, compound 3 hours
T3 construct: host or cells: H1975 C797S (CRISPR-edited)
Outline: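 Readout is the HTRF-measured Tyr1068 phospho-EGFR to total EGFR ratio, normalised to the 0 μM control as percent. Preceding this, CRISPR-edited H1975 C797S cells, plated 24 h earlier, were exposed 3 h to duplicate compound doses in medium with 0.1% DMSO, then lysed on a shaker.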

[4] = target: CtermHisTag-mEGFR Wild type (Homo sapiens, UniProt P00533); test: biochemical
Chain of CtermHisTag-mEGFR Wild type (P00533 whole entry): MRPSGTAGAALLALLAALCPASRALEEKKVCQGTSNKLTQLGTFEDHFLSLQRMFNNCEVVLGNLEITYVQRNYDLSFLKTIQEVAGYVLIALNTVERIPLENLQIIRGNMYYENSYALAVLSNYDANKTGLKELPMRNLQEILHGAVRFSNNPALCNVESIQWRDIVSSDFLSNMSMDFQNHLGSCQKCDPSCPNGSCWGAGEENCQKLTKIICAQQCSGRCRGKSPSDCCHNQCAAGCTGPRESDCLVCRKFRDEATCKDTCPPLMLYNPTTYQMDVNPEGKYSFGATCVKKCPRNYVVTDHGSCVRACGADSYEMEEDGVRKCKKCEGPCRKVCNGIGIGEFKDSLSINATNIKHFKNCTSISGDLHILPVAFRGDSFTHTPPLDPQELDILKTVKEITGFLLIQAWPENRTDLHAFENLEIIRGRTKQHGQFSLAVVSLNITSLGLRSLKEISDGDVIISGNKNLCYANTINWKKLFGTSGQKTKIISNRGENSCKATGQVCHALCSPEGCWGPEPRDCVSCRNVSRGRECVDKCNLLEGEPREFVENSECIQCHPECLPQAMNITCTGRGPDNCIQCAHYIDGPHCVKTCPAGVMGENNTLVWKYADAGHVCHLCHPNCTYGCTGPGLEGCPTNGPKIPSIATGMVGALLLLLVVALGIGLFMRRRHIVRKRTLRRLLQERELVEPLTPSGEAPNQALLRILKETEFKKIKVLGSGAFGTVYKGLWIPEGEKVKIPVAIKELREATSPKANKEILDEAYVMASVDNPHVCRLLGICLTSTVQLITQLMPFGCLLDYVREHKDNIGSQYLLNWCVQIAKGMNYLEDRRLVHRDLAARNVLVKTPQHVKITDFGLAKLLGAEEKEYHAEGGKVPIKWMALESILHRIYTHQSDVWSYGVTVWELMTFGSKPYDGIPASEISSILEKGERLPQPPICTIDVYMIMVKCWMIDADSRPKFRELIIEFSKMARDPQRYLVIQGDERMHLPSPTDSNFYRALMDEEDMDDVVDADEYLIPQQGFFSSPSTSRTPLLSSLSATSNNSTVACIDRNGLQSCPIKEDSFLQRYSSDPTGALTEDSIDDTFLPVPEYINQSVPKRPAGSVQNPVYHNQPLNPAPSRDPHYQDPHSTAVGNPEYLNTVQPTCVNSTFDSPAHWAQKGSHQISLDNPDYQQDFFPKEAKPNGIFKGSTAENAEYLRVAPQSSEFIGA

T2 sequence (P00533 25-1210): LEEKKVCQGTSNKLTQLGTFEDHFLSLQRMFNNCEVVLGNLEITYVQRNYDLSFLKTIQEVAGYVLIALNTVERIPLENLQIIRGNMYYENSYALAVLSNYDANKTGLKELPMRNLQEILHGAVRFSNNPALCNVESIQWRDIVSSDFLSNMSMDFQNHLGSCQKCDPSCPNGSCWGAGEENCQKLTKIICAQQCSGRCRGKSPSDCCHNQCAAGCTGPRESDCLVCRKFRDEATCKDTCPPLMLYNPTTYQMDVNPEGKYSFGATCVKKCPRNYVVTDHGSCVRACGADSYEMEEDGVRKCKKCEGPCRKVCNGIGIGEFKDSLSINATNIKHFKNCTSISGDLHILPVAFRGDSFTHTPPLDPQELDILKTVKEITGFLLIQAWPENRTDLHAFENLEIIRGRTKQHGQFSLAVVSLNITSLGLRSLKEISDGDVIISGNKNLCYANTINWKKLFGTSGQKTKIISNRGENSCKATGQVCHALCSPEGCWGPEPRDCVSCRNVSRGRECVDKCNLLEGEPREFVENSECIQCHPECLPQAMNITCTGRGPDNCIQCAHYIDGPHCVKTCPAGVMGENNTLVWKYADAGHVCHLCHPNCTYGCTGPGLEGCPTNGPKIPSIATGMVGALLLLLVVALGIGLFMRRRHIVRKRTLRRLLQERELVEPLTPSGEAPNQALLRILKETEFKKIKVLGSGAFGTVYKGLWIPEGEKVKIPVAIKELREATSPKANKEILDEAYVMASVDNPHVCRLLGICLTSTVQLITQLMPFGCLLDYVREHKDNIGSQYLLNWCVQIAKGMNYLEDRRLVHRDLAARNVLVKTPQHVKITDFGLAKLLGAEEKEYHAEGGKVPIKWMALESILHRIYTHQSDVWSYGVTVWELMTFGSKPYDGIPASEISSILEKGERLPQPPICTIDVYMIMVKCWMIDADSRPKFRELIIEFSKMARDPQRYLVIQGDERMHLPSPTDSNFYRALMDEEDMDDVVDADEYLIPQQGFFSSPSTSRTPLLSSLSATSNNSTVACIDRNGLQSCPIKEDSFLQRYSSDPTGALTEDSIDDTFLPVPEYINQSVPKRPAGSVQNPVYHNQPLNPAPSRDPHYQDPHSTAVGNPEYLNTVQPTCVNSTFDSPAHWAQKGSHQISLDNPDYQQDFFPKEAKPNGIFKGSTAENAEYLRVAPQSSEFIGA
T3 sequence (P00533 25-1210 T790M/C797S/L858R): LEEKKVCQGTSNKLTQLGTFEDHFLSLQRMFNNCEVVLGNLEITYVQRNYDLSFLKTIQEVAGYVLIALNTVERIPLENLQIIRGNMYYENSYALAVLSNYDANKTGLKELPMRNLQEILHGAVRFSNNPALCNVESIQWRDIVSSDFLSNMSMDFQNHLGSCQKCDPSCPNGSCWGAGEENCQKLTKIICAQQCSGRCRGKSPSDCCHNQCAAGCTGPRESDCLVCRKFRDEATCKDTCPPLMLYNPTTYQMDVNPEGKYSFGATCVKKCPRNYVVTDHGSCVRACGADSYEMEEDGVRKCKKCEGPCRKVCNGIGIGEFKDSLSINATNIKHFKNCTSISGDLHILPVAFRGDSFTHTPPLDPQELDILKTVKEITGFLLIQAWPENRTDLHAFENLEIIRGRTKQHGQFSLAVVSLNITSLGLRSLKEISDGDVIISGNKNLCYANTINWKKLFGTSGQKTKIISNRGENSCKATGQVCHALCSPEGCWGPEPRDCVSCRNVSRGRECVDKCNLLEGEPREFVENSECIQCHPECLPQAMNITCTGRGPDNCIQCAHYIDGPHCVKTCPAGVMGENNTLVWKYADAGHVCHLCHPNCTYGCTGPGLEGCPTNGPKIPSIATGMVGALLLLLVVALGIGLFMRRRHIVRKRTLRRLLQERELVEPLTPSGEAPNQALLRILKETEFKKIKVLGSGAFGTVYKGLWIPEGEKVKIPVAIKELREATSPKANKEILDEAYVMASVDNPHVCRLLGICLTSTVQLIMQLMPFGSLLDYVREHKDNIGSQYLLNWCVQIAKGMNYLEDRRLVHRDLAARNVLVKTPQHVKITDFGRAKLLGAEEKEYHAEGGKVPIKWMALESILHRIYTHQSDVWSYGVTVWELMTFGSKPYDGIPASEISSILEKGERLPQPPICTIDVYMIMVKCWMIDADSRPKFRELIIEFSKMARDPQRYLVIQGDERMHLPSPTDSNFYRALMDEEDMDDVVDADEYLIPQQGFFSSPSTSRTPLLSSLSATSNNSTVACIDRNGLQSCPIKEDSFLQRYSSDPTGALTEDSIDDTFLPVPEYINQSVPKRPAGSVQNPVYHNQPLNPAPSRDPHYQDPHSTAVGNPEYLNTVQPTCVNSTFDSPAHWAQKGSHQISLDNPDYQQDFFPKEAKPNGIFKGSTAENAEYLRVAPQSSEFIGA
T1 sequence (P00533 25-1210 T790M/L858R): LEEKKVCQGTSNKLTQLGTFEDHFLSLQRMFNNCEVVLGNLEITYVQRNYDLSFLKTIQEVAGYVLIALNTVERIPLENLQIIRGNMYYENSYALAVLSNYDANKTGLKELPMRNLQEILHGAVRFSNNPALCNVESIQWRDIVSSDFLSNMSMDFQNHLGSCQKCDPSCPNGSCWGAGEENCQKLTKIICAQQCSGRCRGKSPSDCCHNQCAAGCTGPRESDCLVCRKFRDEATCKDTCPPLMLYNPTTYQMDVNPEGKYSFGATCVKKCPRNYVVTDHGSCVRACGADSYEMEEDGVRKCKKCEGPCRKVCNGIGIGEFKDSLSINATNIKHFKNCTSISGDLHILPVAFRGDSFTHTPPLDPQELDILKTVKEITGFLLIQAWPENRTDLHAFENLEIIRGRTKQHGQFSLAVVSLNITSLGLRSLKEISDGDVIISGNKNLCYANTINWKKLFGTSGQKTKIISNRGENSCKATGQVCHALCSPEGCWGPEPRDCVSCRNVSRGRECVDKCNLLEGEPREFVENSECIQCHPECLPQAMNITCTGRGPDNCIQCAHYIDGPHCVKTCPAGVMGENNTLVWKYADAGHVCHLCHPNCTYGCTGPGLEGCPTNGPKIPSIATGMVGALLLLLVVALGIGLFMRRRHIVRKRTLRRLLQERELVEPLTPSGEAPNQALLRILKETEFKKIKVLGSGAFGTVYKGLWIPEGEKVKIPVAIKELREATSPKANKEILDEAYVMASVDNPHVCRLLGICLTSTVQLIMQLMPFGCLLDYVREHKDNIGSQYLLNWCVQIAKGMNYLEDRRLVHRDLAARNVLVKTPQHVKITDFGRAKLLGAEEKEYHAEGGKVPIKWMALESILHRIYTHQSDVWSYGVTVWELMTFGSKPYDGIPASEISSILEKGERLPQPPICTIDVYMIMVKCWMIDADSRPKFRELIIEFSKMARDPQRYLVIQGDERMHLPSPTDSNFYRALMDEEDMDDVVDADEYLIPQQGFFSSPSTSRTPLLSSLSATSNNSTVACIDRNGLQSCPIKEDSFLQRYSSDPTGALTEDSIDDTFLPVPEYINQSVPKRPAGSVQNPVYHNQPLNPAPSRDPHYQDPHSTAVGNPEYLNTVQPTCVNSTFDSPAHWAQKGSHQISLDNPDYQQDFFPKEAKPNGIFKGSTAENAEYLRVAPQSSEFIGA

Row | IC50 [1] [nM] | IC50 [2] [nM] | IC50 [3] [nM] | IC50 [4] [nM] | Structure (SMILES)
1 | < 500 | 1000 to 3000 | < 500 | < 1000 | C#Cc1cc(=O)n(C)c2nc(Nc3ccc(N4CCN(C)CC4)c(OCCc4ccccc4)c3)ncc12 [Example 214, 5-Ethynyl-8-methyl-2-((4-(4-methylpiperazin-1-yl)-3-phenethoxyphenyl)amino)pyrido[2,3-d]pyrimidin-7(8H)-one]
2 | < 500 | 1000 to 3000 | < 500 | < 1000 | C#Cc1cc(=O)n(C)c2nc(Nc3ccc(N4CCN(C)CC4)c(OC4CCCC4)c3)ncc12 [Example 215, 2-((3-(Cyclopentyloxy)-4-(4-methylpiperazin-1-yl)phenyl)amino)-5-ethynyl-8-methylpyrido[2,3-d]pyrimidin-7(8H)-one]
3 | < 500 | 1000 to 3000 | < 500 | < 1000 | C#Cc1cc(=O)n(C)c2nc(Nc3ccc(N4CCN(C)CC4)c(OCCC(C)C)c3)ncc12 [Example 216, 5-Ethynyl-2-((3-(isopentyloxy)-4-(4-methylpiperazin-1-yl)phenyl)amino)-8-methylpyrido[2,3-d]pyrimidin-7(8H)-one]
4 | < 500 | 1000 to 3000 | < 500 | < 1000 | C#Cc1cc(=O)n(C)c2nc(Nc3ccc(N4CCN(C)CC4)c(NC(=O)CC4CCCC4)c3)ncc12 [Example 217, 2-Cyclopentyl-N-(5-((5-ethynyl-8-methyl-7-oxo-7,8-dihydropyrido[2,3-d]pyrimidin-2-yl)amino)-2-(4-methylpiperazin-1-yl)phenyl)acetamide]
5 | 1000 to 3000 | > 3000 | > 3000 | < 1000 | C#Cc1cc(=O)n(C)c2nc(Nc3ccc(N4CCN(C)CC4)c(S(=O)(=O)NCC4CCCC4)c3)ncc12 [Example 218]
6 | 500 to 1000 | > 3000 | 500 to 1000 | < 1000 | C#Cc1cc(=O)n(C)c2nc(Nc3ccc(N4CCN(C)CC4)c(NC(=O)NC4CCCC4)c3)ncc12 [Example 219, 3-Cyclopentyl-1-[5-({5-ethynyl-8-methyl-7-oxopyrido[2,3-d]pyrimidin-2-yl}amino)-2-(4-methylpiperazin-1-yl)phenyl]urea]
7 | < 500 | 1000 to 3000 | < 500 | < 1000 | C#Cc1cc(=O)n(C)c2nc(Nc3ccc(N4CCN(C)CC4)c(OCCc4ccnn4C)c3)ncc12 [Example 220, 5-Ethynyl-8-methyl-2-((3-(2-(1-methyl-1H-pyrazol-5-yl)ethoxy)-4-(4-methylpiperazin-1-yl)phenyl)amino)pyrido[2,3-d]pyrimidin-7(8H)-one]
8 | 500 to 1000 | > 3000 | 1000 to 3000 | 1000 to 10000 | C#Cc1cc(=O)n(C)c2nc(Nc3ccc(N4CCN(C)CC4)c(C(=O)NCC4CCCC4)c3)ncc12 [Example 221, N-(Cyclopentylmethyl)-5-({5-ethynyl-8-methyl-7-oxopyrido[2,3-d]pyrimidin-2-yl}amino)-2-(4-methylpiperazin-1-yl)benzamide]
9 | < 500 | 1000 to 3000 | < 500 | < 1000 | C#Cc1cc(=O)n2c3nc(ncc13)Nc1ccc(N3CCN(C)CC3)c(c1)NC(=O)CCC2 [Example 222, 1^5-ethynyl-3^4-(4-methylpiperazin-1-yl)-1^7,1^8-dihydro-2,4-diaza-1(2,8)-pyrido[2,3-d]pyrimidina-3(1,3)-benzenacyclooctaphane-1^7,5-dione]
10 | < 500 | 1000 to 3000 | < 500 | < 1000 | C#Cc1cc(=O)n2c3nc(ncc13)Nc1ccc(N3CCN(C)CC3)c(c1)CN(C)C(=O)CC2 [Example 223, 1^5-Ethynyl-5-methyl-3^4-(4-methylpiperazin-1-yl)-1^7,1^8-dihydro-2,5-diaza-1(2,8)-pyrido[2,3-d]pyrimidina-3(1,3)-benzenacyclooctaphane-1^7,6-dione]
11 | > 3000 | > 3000 | > 3000 | > 10000 | C#Cc1cc(=O)n2c3nc(ncc13)Nc1ccc(N3CCN(C)CC3)c(c1)C(=O)NCCC2 [Example 224, 1^5-ethynyl-3^4-(4-methylpiperazin-1-yl)-1^7,1^8-dihydro-2,5-diaza-1(2,8)-pyrido[2,3-d]pyrimidina-3(1,3)-benzenacyclooctaphane-1^7,4-dione]
12 | 1000 to 3000 | > 3000 | 1000 to 3000 | > 10000 | C#Cc1cc(=O)n2c3nc(ncc13)Nc1ccc(N3CCN(C)CC3)c(c1)N(C)C(=O)CCC2 [Example 225, 1^5-Ethynyl-4-methyl-3^4-(4-methylpiperazin-1-yl)-1^7,1^8-dihydro-2,4-diaza-1(2,8)-pyrido[2,3-d]pyrimidina-3(1,3)-benzenacyclooctaphane-1^7,5-dione]
13 | < 500 | > 3000 | < 500 | < 1000 | C#Cc1cc(=O)n2c3nc(ncc13)Nc1ccc(N3CCN(C)CC3)c(c1)CN(C)CCC2 [Example 226, 1^5-Ethynyl-5-methyl-3^4-(4-methylpiperazin-1-yl)-1^7,1^8-dihydro-2,5-diaza-1(2,8)-pyrido[2,3-d]pyrimidina-3(1,3)-benzenacyclooctaphan-1^7-one]
14 | > 3000 | > 3000 | > 3000 | 1000 to 10000 | C#Cc1cc(=O)n2c3nc(ncc13)Nc1ccc(N3CCN(C)CC3)c(c1)CCNC(=O)C2 [Example 227, 1^5-Ethynyl-3^4-(4-Methylpiperazin-1-yl)-1^7,1^8-dihydro-2,6-diaza-1(2,8)-pyrido[2,3-d]pyrimidina-3(1,3)-benzenacyclooctaphane-1^7,7-dione]
15 | < 500 | > 3000 | < 500 | 1000 to 10000 | C#Cc1cc(=O)n2c3nc(ncc13)Nc1ccc(N3CCN(C)CC3)c(c1)OCCCCC2C (stereo not shown) [Example 228, 1^5-Ethynyl-9-methyl-3^4-(4-methylpiperazin-1-yl)-1^7,1^8-dihydro-4-oxa-2-aza-1(2,8)-pyrido[2,3-d]pyrimidina-3(1,3)-benzenacyclononaphan-17-one]
16 | < 500 | < 500 | < 500 | < 1000 | C#Cc1c(C)c(=O)n2c3nc(ncc13)Nc1ccc(N3CCN(C)CC3)c(c1)OCCCCC2 [Example 229, 1^5-Ethynyl-1^6-Methyl-3^4-(4-methylpiperazin-1-yl)-1^7,1^8-dihydro-4-oxa-2-aza-1(2,8)-pyrido[2,3-d]pyrimidina-3(1,3)-benzenacyclononaphan-1^7-one]
17 | < 500 | 1000 to 3000 | < 500 | < 1000 | C#Cc1cc(=O)n2c3nc(ncc13)Nc1ccc(N3CCN(C)CC3)c(c1)OCCCCCC2 [Example 230, 1^5-ethynyl-3^4-(4-methylpiperazin-1-yl)-1^7,1^8-dihydro-4-oxa-2-aza-1(2,8)-pyrido[2,3-d]pyrimidina-3(1,3)-benzenacyclodecaphan-1^7-one]
18 | < 500 | 1000 to 3000 | < 500 | < 1000 | C#Cc1cc(=O)n2c3nc(ncc13)Nc1ccc(N3CCN(C)CC3)c(c1)COCCCC2 [Example 231, 1^5-Ethynyl-3^4-(4-methylpiperazin-1-yl)-1^7,1^8-dihydro-5-oxa-2-aza-1(2,8)-pyrido[2,3-d]pyrimidina-3(1,3)-benzenacyclononaphan-1^7-one]
19 | < 500 | > 3000 | < 500 | < 1000 | C#Cc1cc(=O)n2c3nc(ncc13)Nc1ccc(N3CCN(C)CC3)c(c1)OCCOCC2 [Example 232, 1^5-Ethynyl-3^4-(4-Methylpiperazin-1-yl)-1^7,1^8-dihydro-4,7-dioxa-2-aza-1(2,8)-pyrido[2,3-d]pyrimidina-3(1,3)-benzenacyclononaphan-1^7-one]
20 | 1000 to 3000 | > 3000 | 1000 to 3000 | < 1000 | C#Cc1cc(=O)n2c3nc(ncc13)Nc1ccc(N3CCN(C)CC3)c(c1)S(=O)(=O)NCCC2 [Example 234, 1^5-Ethynyl-3^4-(4-methylpiperazin-1-yl)-1^7,1^8-dihydro-4-thia-2,5-diaza-1(2,8)-pyrido[2,3-d]pyrimidina-3(1,3)-benzenacyclooctaphan-1^7-one 4,4-dioxide]
21 | < 500 | 500 to 1000 | < 500 | < 1000 | C#Cc1cc(=O)n2c3nc(ncc13)Nc1ccc(N3CCN(C(C)C)CC3)c(c1)NC(=O)CCC2 [Example 235, 1^5-Ethynyl-3^4-(4-isopropylpiperazin-1-yl)-1^7,1^8-dihydro-2,4-diaza-1(2,8)-pyrido[2,3-d]pyrimidina-3(1,3)-benzenacyclooctaphane-1^7,5-dione]
22 | < 500 | 1000 to 3000 | < 500 | < 1000 | C#Cc1cc(=O)n2c3nc(ncc13)Nc1ccc(N3CCN(CCOC)CC3)c(c1)NC(=O)CCC2 [Example 236, 1^5-Ethynyl-3^4-(4-(2-methoxyethyl)piperazin-1-yl)-1^7,1^8-dihydro-2,4-diaza-1(2,8)-pyrido[2,3-d]pyrimidina-3(1,3)-benzenacyclooctaphane-1^7,5-dione]
